For 29 molecules, IC50 results are on record in US20240174662A1, “SMALL MOLECULE INHIBITORS OF SALT INDUCIBLE KINASES” (Janssen Biotech, Inc., priority 2021, published 2024).

The IC50 is the concentration needed to halve the response being measured. A high value points to weaker potency.

In the assay the target is SIK2 (Homo sapiens (Human), UniProt Q9H0K1). The assay can be described thus: SIK2 Enzymatic Assay Version 2 (High ATP). The format is biochemical. Conditions: 3 mM ATP and 200 μM HDAC5tide final, ADP-Glo Max luminescence. The method, boiled down:
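Luminescent ADP-Glo Max read-out: depletion reagent 2 h, then detection reagent 1 h. Before the reaction, compounds were incubated 30 min with enzyme added at 6 nM (twice final concentration), with all steps at room temperature.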
For orientation: In ADP-Glo the light output rises with the ADP produced.

SIK2, sequence (Q9H0K1 whole entry, species assumed): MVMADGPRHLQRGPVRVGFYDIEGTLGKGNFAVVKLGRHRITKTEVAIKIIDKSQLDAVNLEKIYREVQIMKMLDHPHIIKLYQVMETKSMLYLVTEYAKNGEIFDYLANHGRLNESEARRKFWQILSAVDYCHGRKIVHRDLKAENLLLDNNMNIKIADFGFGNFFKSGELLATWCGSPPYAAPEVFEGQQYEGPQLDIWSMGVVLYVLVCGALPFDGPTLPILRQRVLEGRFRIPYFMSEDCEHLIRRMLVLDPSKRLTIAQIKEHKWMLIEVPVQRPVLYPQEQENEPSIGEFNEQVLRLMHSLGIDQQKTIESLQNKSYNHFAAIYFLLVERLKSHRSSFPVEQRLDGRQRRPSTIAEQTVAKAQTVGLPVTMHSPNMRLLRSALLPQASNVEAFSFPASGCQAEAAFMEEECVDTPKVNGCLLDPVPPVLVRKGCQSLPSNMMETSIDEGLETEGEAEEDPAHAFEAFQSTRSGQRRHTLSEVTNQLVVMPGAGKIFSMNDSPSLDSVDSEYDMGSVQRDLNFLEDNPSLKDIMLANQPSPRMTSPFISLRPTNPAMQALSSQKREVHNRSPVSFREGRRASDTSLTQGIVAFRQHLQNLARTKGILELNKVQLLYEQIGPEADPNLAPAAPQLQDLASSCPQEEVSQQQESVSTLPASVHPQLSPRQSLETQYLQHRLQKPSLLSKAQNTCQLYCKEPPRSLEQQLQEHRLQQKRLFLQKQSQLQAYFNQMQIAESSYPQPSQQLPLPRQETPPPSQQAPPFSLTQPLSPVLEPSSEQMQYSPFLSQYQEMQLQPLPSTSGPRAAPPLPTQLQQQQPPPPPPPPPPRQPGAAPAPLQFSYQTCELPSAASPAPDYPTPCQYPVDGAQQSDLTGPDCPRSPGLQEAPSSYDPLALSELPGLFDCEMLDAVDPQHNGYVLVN

On to `C[C@@H]1CN(C)[C@H]1COc1cnn(C)c1-c1ccn2nc(NC(=O)C3CC3)cc2c1` [Example 24, N-[5-[4-[[(2R,3R)-1,3-Dimethylazetidin-2-yl]methoxy]-2-methyl-pyrazol-3-yl]pyrazolo[1,5-a]pyridin-2-yl]cyclopropanecarboxamide], for which the half-inhibitory concentration (IC50) amounted to 34.9 nM.

Take `CC[C@@H]1CN(C)[C@@H]1COc1cnn(C)c1-c1ccn2nc(NC(=O)C3CC3)cc2c1` [Example 11, N-[5-[4-[[(2S,3R)-3-ethyl-1-methyl-azetidin-2-yl]methoxy]-2-methyl-pyrazol-3-yl]pyrazolo[1,5-a]pyridin-2-yl]cyclopropanecarboxamide]: the IC50 amounted to 117 nM. In turn, `Cc1cnc(Nc2cc3cc(-c4c(O[C@H]5CCN(C)C5)cnn4C)ccn3n2)cn1` [Example 454, 5-[2-methyl-4-[(3S)-1-methylpyrrolidin-3-yl]oxy-pyrazol-3-yl]-N-(5-methylpyrazin-2-yl)pyrazolo[1,5-a]pyridin-2-amine] gave an IC50 of 81.3 nM.

In turn, `Cc1onc(OC[C@H](N)c2ccccc2)c1-c1ccn2nc(NC(=O)C3CC3)cc2c1` [Example 204, N-[5-[3-[(2R)-2-amino-2-phenyl-ethoxy]-5-methyl-isoxazol-4-yl]pyrazolo[1,5-a]pyridin-2-yl]cyclopropanecarboxamide] had an IC50 of 17.4 nM. With `Cn1ncc(OCC2(N)CC2)c1-c1ccn2nc(NC(=O)C3CC3)cc2c1` [Example 506, N-[5-[4-[(1-aminocyclopropyl)methoxy]-2-methyl-pyrazol-3-yl]pyrazolo[1,5-a]pyridin-2-yl]cyclopropanecarboxamide], the IC50 is 350 nM. The figure for `CCCN1CC[C@@H]1COc1cnn(C)c1-c1ccn2nc(NC(=O)C3CC3)cc2c1` [Example 246, N-[5-[2-methyl-4-[[(2R)-1-propylazetidin-2-yl]methoxy]pyrazol-3-yl]pyrazolo[1,5-a]pyridin-2-yl]cyclopropanecarboxamide] is 1.6 nM; for `Cn1ncc(O[C@H]2CNC[C@H]2F)c1-c1ccn2nc(NC(=O)C3CC3)cc2c1` [Example 504, N-[5-[4-[(3S,4R)-4-fluoropyrrolidin-3-yl]oxy-2-methyl-pyrazol-3-yl]pyrazolo[1,5-a]pyridin-2-yl]cyclopropanecarboxamide] it is 466 nM; for `CN1CC[C@@H]1COc1cnn(C)c1-c1ccn2nc(Nc3cnn(C)c3)cc2c1` [Example 142, 5-[2-methyl-4-[[(2R)-1-methylazetidin-2-yl]methoxy]pyrazol-3-yl]-N-(1-methylpyrazol-4-yl)pyrazolo[1,5-a]pyridin-2-amine] it is 2.8 nM. `Cc1cc(Nc2cc3cc(-c4c(OC[C@@H](O)C5CCC5)cnn4C)ccn3n2)nc(C)n1` [Example 302, (S)-1-cyclobutyl-2-[5-[2-[(2,6-dimethylpyrimidin-4-yl)amino]pyrazolo[1,5-a]pyridin-5-yl]-1-methyl-pyrazol-4-yl]oxy-ethanol] gave an IC50 of 28.3 nM. Compared with the last molecule, the IC50 is about 10-fold higher. Consider `CNC(=O)c1cnc(Nc2cc3cc(-c4c(OC[C@H]5CCN5C)cnn4C)ccn3n2)cn1` [Example 133, N-methyl-5-[[5-[2-methyl-4-[[(2R)-1-methylazetidin-2-yl]methoxy]pyrazol-3-yl]pyrazolo[1,5-a]pyridin-2-yl]amino]pyrazine-2-carboxamide], for which the IC50 came out at 7.1 nM. Compared with the last molecule, the IC50 is about 4-fold lower. Then `CO[C@@H]1CNC[C@@H]1Oc1cnn(C)c1-c1ccn2nc(NC(=O)C3CC3)cc2c1` (stereo in doubt) [Example 232, (rac-cis)-N-[5-[4-(4-methoxypyrrolidin-3-yl)oxy-2-methyl-pyrazol-3-yl]pyrazolo[1,5-a]pyridin-2-yl]cyclopropanecarboxamide], with 33.2 nM. As for `CCCn1ncc(OC[C@@H]2CCN(C)C2)c1-c1ccn2nc(NC(=O)C3CC3)cc2c1` [Example 490, N-[5-[4-[[(3R)-1-methylpyrrolidin-3-yl]methoxy]-2-propyl-pyrazol-3-yl]pyrazolo[1,5-a]pyridin-2-yl]cyclopropanecarboxamide], the IC50 is 7330 nM. Regarding `Cc1onc(O[C@@H]2CN[C@H](C)C2)c1-c1ccn2nc(NC(=O)C3CC3)cc2c1` [Example 85, N-[5-[5-methyl-3-[(3S,5R)-5-methylpyrrolidin-3-yl]oxy-isoxazol-4-yl]pyrazolo[1,5-a]pyridin-2-yl]cyclopropanecarboxamide], 32.1 nM corresponded to half-maximal inhibition (IC50). On to `CCN1CC[C@@H]1COc1cnn(C)c1-c1ccn2nc(Nc3ccc4nccn4n3)cc2c1` [Example 175, N-[5-[4-[[(2R)-1-ethylazetidin-2-yl]methoxy]-2-methyl-pyrazol-3-yl]pyrazolo[1,5-a]pyridin-2-yl]imidazo[1,2-b]pyridazin-6-amine], for which the IC50 is below 0.847 nM. Consider `CCN1CC[C@@H]1COc1cnn(C)c1-c1ccc2nc(Nc3cc(C)nc(C)n3)cn2c1` [Example 476, N-(2,6-dimethylpyrimidin-4-yl)-6-[4-[[(2R)-1-ethylazetidin-2-yl]methoxy]-2-methyl-pyrazol-3-yl]imidazo[1,2-a]pyridin-2-amine], for which the IC50 was determined as 3.1 nM. Consider `Cc1cc(Nc2cc3cc(-c4c(OC[C@]5(C)CCCO5)cnn4C)ccn3n2)nc(C)n1` (single isomer, unassigned) [Example 447, (*S)—N-(2,6-dimethylpyrimidin-4-yl)-5-[2-methyl-4-[(2-methyltetrahydrofuran-2-yl)methoxy]pyrazol-3-yl]pyrazolo[1,5-a]pyridin-2-amine], for which the IC50 came to 69.7 nM. `COC1(COc2noc(C)c2-c2ccn3nc(Nc4cc(C)nc(C)n4)cc3c2)CNC1` [Example 30, N-(2,6-dimethylpyrimidin-4-yl)-5-[3-[(3-methoxyazetidin-3-yl)methoxy]-5-methyl-isoxazol-4-yl]pyrazolo[1,5-a]pyridin-2-amine] returned an IC50 of 5.2 nM. This IC50 is about 13-fold lower than that of the molecule before. As to `Cc1onc(OC[C@H](N)c2ccccc2F)c1-c1ccn2nc(NC(=O)C3CC3)cc2c1` [Example 221, N-[5-[3-[(2R)-2-amino-2-(2-fluorophenyl)ethoxy]-5-methyl-isoxazol-4-yl]pyrazolo[1,5-a]pyridin-2-yl]cyclopropanecarboxamide], the IC50 was 23.2 nM.

The molecule `CN1CC[C@@H]1COc1cnn(C)c1-c1ccn2nc(Nc3cnc(OC(F)F)cn3)cc2c1` [Example 155, N-[5-(difluoromethoxy)pyrazin-2-yl]-5-[2-methyl-4-[[(2R)-1-methylazetidin-2-yl]methoxy]pyrazol-3-yl]pyrazolo[1,5-a]pyridin-2-amine] yielded an IC50 of 6.6 nM. For the molecule `Cc1cnc(Nc2cc3cc(-c4c(CO[C@H]5CN(C)C[C@@H]5C)cnn4C)ccn3n2)cn1` (stereo in doubt) [Example 372, Trans-*S, *R-5-[4-[(1,4-dimethylpyrrolidin-3-yl)oxymethyl]-2-methyl-pyrazol-3-yl]-N-(5-methylpyrazin-2-yl)pyrazolo[1,5-a]pyridin-2-amine], the IC50 was 24.4 nM.

The molecule `Cc1cc(Nc2cc3cc(-c4c(O[C@H]5C[C@H]6CC[C@@H]5O6)cnn4C)ccn3n2)nc(C)n1` (single isomer, unassigned) [Example 352, (1*S, 2*S, 4*R)—N-(2,6-dimethylpyrimidin-4-yl)-5-[2-methyl-4-(7-oxabicyclo[2.2.1]heptan-3-yloxy)pyrazol-3-yl]pyrazolo[1,5-a]pyridin-2-amine] yielded an IC50 of 66.8 nM. Regarding `CCC1(COc2cnn(C)c2-c2ccn3nc(NC(=O)C4CC4)cc3c2)CN(C)C1` [Example 408, N-[5-[4-[(3-ethyl-1-methyl-azetidin-3-yl)methoxy]-2-methyl-pyrazol-3-yl]pyrazolo[1,5-a]pyridin-2-yl]cyclopropanecarboxamide], the IC50 is 79.5 nM.

As for `CN1CC[C@@H]1COc1cnn(C)c1-c1ccn2nc(Nc3ccc(C4CC4)nn3)cc2c1` [Example 50, N-(6-cyclopropylpyridazin-3-yl)-5-[2-methyl-4-[[(2R)-1-methylazetidin-2-yl]methoxy]pyrazol-3-yl]pyrazolo[1,5-a]pyridin-2-amine], the IC50 came to 2.6 nM. Take `Cn1ncc(OC[C@H](O)c2ccccc2)c1-c1ccn2nc(NC(=O)C3CC3)cc2c1` [Example 403, N-[5-[4-[(2R)-2-hydroxy-2-phenyl-ethoxy]-2-methyl-pyrazol-3-yl]pyrazolo[1,5-a]pyridin-2-yl]cyclopropanecarboxamide]: the IC50 was 99.7 nM. As for `CN1CC[C@H](Oc2cnn(C)c2-c2ccn3nc(Nc4ccccn4)cc3c2)C1` [Example 452, 5-[2-methyl-4-[(3S)-1-methylpyrrolidin-3-yl]oxy-pyrazol-3-yl]-N-(2-pyridyl)pyrazolo[1,5-a]pyridin-2-amine], the midpoint of inhibition, the IC50, lay at 135 nM. As to `CN1CC[C@@H]1COc1cnn(C)c1-c1ccn2nc(Nc3ccc(C(=O)NCC(C)(C)O)cn3)cc2c1` [Example 106, N-(2-hydroxy-2-methyl-propyl)-6-[[5-[2-methyl-4-[[(2R)-1-methylazetidin-2-yl]methoxy]pyrazol-3-yl]pyrazolo[1,5-a]pyridin-2-yl]amino]pyridine-3-carboxamide], the 50% inhibitory concentration (IC50) is 2.4 nM. On to `CCN1CC2(CC2)[C@H]1COc1cnn(C)c1-c1ccn2nc(NC(=O)C3CC3)cc2c1` (single isomer, unassigned) [Example 67, (*S)—N-[5-[4-[(5-ethyl-5-azaspiro[2.3]hexan-6-yl)methoxy]-2-methyl-pyrazol-3-yl]pyrazolo[1,5-a]pyridin-2-yl]cyclopropanecarboxamide], for which the IC50 is 52.1 nM. This IC50 lies about 22-fold higher than the previous one.

For the molecule `COCCN1CCC[C@@H]1COc1cnn(C)c1-c1ccn2nc(NC(=O)C3CC3)cc2c1` [Example 428, N-[5-[4-[[(2R)-1-(2-methoxyethyl)pyrrolidin-2-yl]methoxy]-2-methyl-pyrazol-3-yl]pyrazolo[1,5-a]pyridin-2-yl]cyclopropanecarboxamide], 183 nM corresponded to half-maximal inhibition (IC50). Against the preceding molecule, the IC50 is about 3.5-fold higher. Then `CCC1(OCc2cnn(C)c2-c2ccn3nc(NC(=O)C4CC4)cc3c2)CNC1` [Example 193, N-[5-[4-[(3-ethylazetidin-3-yl)oxymethyl]-2-methyl-pyrazol-3-yl]pyrazolo[1,5-a]pyridin-2-yl]cyclopropanecarboxamide], with 21.2 nM.
